Laboratory results reported in patent US10058540B2, “2-amino-5,5-difluoro-6-(fluoromethyl)-6-phenyl-3,4,5,6-tetrahydropyridines as BACE1 inhibitors” (H. Lundbeck A/S, priority 2014, dated 2018).

Legend:
[1] = molecular target: T1, BACE1 (Homo sapiens (Human), UniProt P56817); test: BACE1 binding assay (SPA-based, radioligand); details: pH 4.5, Ki=IC50/(1+L/Kd)
Method: The binding assay was performed as SPA-based assay using a biotinylated form of human BACE1 recombinantly expressed and subsequently purified from Freestyle HEK293 cells. The binding assay was run in a 50 mM sodium acetate buffer, pH 4.5 containing 50 mM NaCl and 0.03% Tween-20 in white clear bottom 384 plates (Corning #3653). 10 nM (final concentration) radioligand ([^3H]-N-((1S,2R)-1-benzyl-3-cyclopropylamino-2-hydroxy-propyl)-5-(methanesulfonyl-methyl-amino)-N-((R)-1-phenyl-ethyl)-isophthalamide) (TRQ11569 purchased from GE Healthcare) was mixed with test compound at a given concentration, 6 nM (final concentration) human BACE1 and 25 μg Streptavidin coated PVT core SPA beads (RPNQ0007, GE Healthcare Life Sciences) in a total volume of 40 μl. Several concentrations of each test compound were tested in the assay for IC50 determination. The plates were incubated for one hour at room temperature and counted in a Wallac Trilux counter. Total and non-specific binding were determined using buffer and 1 μM (final concentration) of the high affinity BACE1 reference inhibitor (S)-6-[3-chloro-5-(5-prop-1-ynyl-pyridin-3-yl)-thiophen-2-yl]-2-imino-3,6-dimethyl-tetrahydro-pyrimidin-4-one, respectively. For each test compound, a IC50 value (the concentration mediating 50% inhibition of the specific binding of the radioligand) was determined from concentration-response curve and used to calculate the Ki from the equation Ki=IC50/(1+L/Kd), where L and Kd are the final concentration of the radioligand used in the assay and the dissociation constant of the radioligand, respectively. The Kd of the radioligand was determined from saturation binding experiments.

[2] = molecular target: T1, BACE1; test: BACE1 efficacy assay (FRET-based, commercial BACE1 kit); assay type: biochemical; details: 10 μM test compound
Method: The efficacy assay was performed as a FRET-based assay using a commercially available BACE1 kit (Life Technologies, P2985). 2 μl test compound at 10 μM (final concentration) and 15 μl BACE1 enzyme from the kit (final concentration 3 nM) were preincubated for 15 minutes at room temperature before addition of 15 μl of substrate from the kit (250 nM final concentration) and incubated for additional 90 minutes at room temperature. The assay plate was subsequently read in a Pherastar (Ex540/Em590). The enzyme activity observed in presence of test compound were normalized to the enzyme activity observed in presence of buffer and 10 μM (final concentration) of the high affinity BACE1 reference inhibitor (S)-6-[3-Chloro-5-(5-prop-1-ynyl-pyridin-3-yl)-thiophen-2-yl]-2-imino-3,6-dimethyl-tetra-hydropyrimidin-4-one, respectively. The efficacy of the test compounds was evaluated at 10 μM (final concentration) and defined as the percent inhibition of the enzyme activity using the equation % inhibition=100%−normalized enzyme activity in percent.

[3] = system: Aβ40; test: Assessment of Aβ peptide levels in rat brain and plasma following BACE1 inhibition (Aβ40 ELISA); assay type: in vivo; details: 3 hours post dose, vs vehicle
Method: Assessment of Aβ Peptide Levels in Rat Brain and Plasma Following BACE1 Inhibition. Animals.
Young adult Male Sprague Dawley rats of approximately 250 g weight were purchased from Charles River and received 0-30 mg/kg of vehicle (10% HP betaCD+1M MeSO4, pH 2.5) or test compounds (dissolved in vehicle) only by oral gavage (p.o). The compounds are dosed at a volume of […]. Cohorts of 5-10 animals were established for each treatment condition.
At T=180 minutes after initial dosing the animals were stunned and decapitated with a guillotine. Trunk-blood was sampled in EDTA coated tubes after decapitation of the animal. The blood was centrifuged at 2200 G at 4° C. for 15 minutes and the plasma was collected and frozen at −80° C. The blood was aliquoted for Aβ ELISA and DMPK analysis. Immediately following sacrifice, the brain was extracted and split into 2 halves. The right hemibrains were snap frozen on dry ice and stored at −80° C. The left half was dissected; with the front forebrain taken for Aβ ELISA and the remainder used for DMPK analysis. These samples were also snap frozen on dry ice and stored at −80° C. until use for analysis.
The cortex samples were thawed slightly on wet ice before they were homogenized with a small volume dispersing instrument (T10 basic ULTRA-TURRAX®) which was set at speed 5 for approximately 5-7 sec. The tissue was processed in a 10 times volume of the weight, for example 100 mg of tissue was homogenized in 1000 μL of Homogenization buffer. Homogenization buffer: 50 ml Milli Q water+[…]+0.2% Diethylamin (DEA)+1 tablet of Complete Protease inhibitor cocktail+1 nM 4-(2-aminoethyl)benzenesulfonyl fluoride hydrochloride irreversible serine protease inhibitor (AEBSF).
After homogenization 450 μL aliquots of the samples are collected into a 1.5 ml Eppendorf tube and placed on wet ice, 0.5% NP-40 (50 ul) was added to all samples and then they were incubated on ice for 30 min. After which all samples were sonicated using an Ultrasonic homogenizer with 20 kHz homogeneous sound (SONOPLUS HD2070, Bandelin Electronic) 10 pulse set at 12-13% power to extract all the Aβ species. The samples were then centrifuged (Ole Dich 157 MPRF Micro centrifuge) at 20000 G for 20 minutes at 4° C. After centrifugation 285 μL of the supernatant was pipetted into 600 μL microtubes tubes and neutralized with 15 μL of 1M Tris-HCL buffer.
WAKO 294-62501 Human/Rat Abeta amyloid (40) kit was used for all ELISA analyses. 30 μL plasma samples or 30 μL of the cortex supernatants generated as described above were placed in 600 μL microtubes tubes on wet ice. To this 30 μL of 8M Urea (AppliChem A1049, 9025) are added to generate a 2-fold dilution. Both plasma and cortex supernatants are incubated on ice for 30 min. Standard rows were prepared from the standard peptide stock provided in the kit and standard diluent containing 1.6M Urea (200 μL 8M Urea+800 μL of standard diluent) and 0.8M Urea (400 μL 8M Urea+3600 μL Standard diluent). A serial 2-fold dilution of Aβ40 from 100 pmol/ml to 0 pmol/L was prepared for the assay.
After incubation with urea, all samples were further diluted by addition of 5 times standard diluent from the Kit. This was done by adding 240 μL Standard Diluent to 60 μL sample/urea mixture, which was then mixed well. 100 μL of each diluted sample was pipetted into designated wells of the ELISA plate in duplicates. The plate was then covered and incubated overnight at 4° C. The following day, the ELISA kit was brought to room temperature before use. The incubated plate was washed 5 times with the 20× washing solution diluted in Milli Q water. 100 μL HRP-conjugate was applied to each well, and the plate was covered and incubates at 4° C. for 1 hr. The wash was repeated again for 5 times. 100 μL 3,3′,5,5′-Tetramethylbenzidine (TMB) solution was applied to each well and the plate was covered and incubated in the dark at room temperature for 30 minutes. […]

[4] = system: P-gp (MDR1); test: MDCK-MDR1 assay (permeability / Pgp efflux); assay type: in vitro ADME; details: dog, Papp BA/Papp AB, Pgp substrate when ≥2
Method: The permeability of the test compounds was assessed in MDCK-MDR1 cells that were cultured to confluency (4-6 days) in a 96 transwell plate. Test compounds were diluted with the transport buffer (HBSS+1% BSA) to a concentration of 0.5 μM and applied to the apical or basolateral side of the cell monolayer. Permeation of the test compounds from A to B direction or B to A direction was determined in triplicate over a 60-minute incubation time at 37° C. and 5% CO2 with a relative humidity of 95%. Test compounds were quantified by LC-MS/MS analysis based on the peaks area ratios of analyte/IS in both the receiver and donor wells of the transwell plate.
The apparent permeability coefficient Papp (cm/s) was calculated using the equation: Papp=(dCr/dt)×Vr/(A×C0) Where dCr/dt is the cumulative concentration of compound in the receiver chamber as a function of time (μM/s); Vr is the solution volume in the receiver chamber (0.05 mL on the apical side; 0.25 mL on the basolateral side); A is the surface area for the transport, i.e. 0.0804 cm^2 for the area of the monolayer; C0 is the initial concentration in the donor chamber (μM).
Compounds are classified Pgp substrates when efflux ratio (Papp BA/Papp AB) is ≥2.

T1 sequence (P56817 46-501): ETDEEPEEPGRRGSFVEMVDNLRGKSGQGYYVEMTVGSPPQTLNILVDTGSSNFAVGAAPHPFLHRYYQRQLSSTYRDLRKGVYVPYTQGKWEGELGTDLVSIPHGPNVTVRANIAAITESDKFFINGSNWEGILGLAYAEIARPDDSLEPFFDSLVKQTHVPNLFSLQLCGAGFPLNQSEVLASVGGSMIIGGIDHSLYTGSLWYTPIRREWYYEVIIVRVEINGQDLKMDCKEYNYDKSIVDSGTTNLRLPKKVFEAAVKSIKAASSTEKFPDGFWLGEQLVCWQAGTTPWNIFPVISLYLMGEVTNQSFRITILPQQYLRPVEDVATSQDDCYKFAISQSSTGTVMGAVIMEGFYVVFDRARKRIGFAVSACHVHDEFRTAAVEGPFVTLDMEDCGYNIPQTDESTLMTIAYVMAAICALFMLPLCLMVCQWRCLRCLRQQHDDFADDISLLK

`COc1ccc(C(=O)Nc2cc(F)c(F)c([C@@]3(CF)N=C(N)CCC3(F)F)c2)nc1` [Compound 15, (S)-N-(3-(6-amino-3,3-difluoro-2-(fluoromethyl)-2,3,4,5-tetrahydropyridin-2-yl)-4,5-difluorophenyl)-5-methoxypicolinamide] was tested, and the Ki [1] was 9 nM, the inhibition at 10 µM [2] was 106% and the Aβ40 reduction ([3]; rat brain, 10 mg/kg p.o.) was 33%. For the same molecule, the Aβ40 reduction ([3]; rat brain, 30 mg/kg p.o.) was 43%, the Aβ40 reduction ([3]; rat plasma, 10 mg/kg p.o.) was 34% and the Aβ40 reduction ([3]; rat plasma, 30 mg/kg p.o.) was 34%. The efflux ratio at 60 min, 0.5 μM [4] was 1.09.
